In patent publication US8679478B2, “Methods of lysosomal storage disease therapy” (Duke University, priority 2010, dated 2014):

Assays:
Type in all cases: in vivo, mouse
[1] = test system: immune tolerant GAA-KO mice; test: GAA activity in tissues, ERT plus β2 agonist (Example 6)
Experimental: Male GAA-KO mice were administered four weekly doses of 20 mg/kg body weight of rhGAA and sacrificed one week following the last injection. Groups of mice were treated with clenbuterol (n=6), albuterol (n=4) or untreated (n=6). Mice were euthanized for tissue analysis 5 weeks after initiation of ERT.
Cerebral and cerebellar hemispheres were analyzed 5 weeks following the initiation of ERT. Groups of mice were treated with clenbuterol (n=6), albuterol (n=4) or untreated (n=6).
Two β2 agonists were evaluated in combination with ERT, clenbuterol and albuterol. […] Groups of 3 month-old immune tolerant GAA-KO mice (Raben et al., Human Mol. Genet., 2001, 10:2039-2047) were treated with four weekly doses of rhGAA (20 mg/kg body weight), with or without concurrent β2 agonist treatment.
(§1) Mice were sacrificed 7 days after the last injection. Selected tissues were collected for GAA enzyme activity and glycogen content analyses. All animal procedures were done in accordance with Duke University Institutional Animal Care and Use Committee-approved guidelines. GAA activity and glycogen content analyses, Rotarod testing, and Western blot detection of CI-MPR was performed essentially as described (Koeberl et al., Mol. Genet. Metab., 2011, 103:107-112. Wire hang testing was performed with a 0.5 cm mesh hardware cloth fixed to an 8 by 10 inch frame. Mice were placed on the wire mesh, which was slowly inverted 6 inches over a cage containing paper bedding. The latency, or time until the mouse fell into the cage, was recorded.

[2] = test system: immune tolerant GAA-KO mice; test: Weight of gastrocnemius, ERT plus β2 agonist; details: clenbuterol plus ERT v. ERT alone or albuterol plus ERT
Experimental: (§2) GAA-KO mice were administered four weekly doses of rhGAA (20 mg/kg), and treated with medium dose clenbuterol (n=7), albuterol (n=4) or untreated (n=6 or 3). […] Mean+/−standard deviation are shown. P values indicate statistically significant differences (lines).
(§3) Two β2 agonists were evaluated in combination with ERT, clenbuterol and albuterol. The dose of clenbuterol was reduced 5-fold from the concentration used in Example 4, to 6 mg/l in drinking water, while albuterol was evaluated at the higher dose (30 mg/l in drinking water). Groups of 3 month-old immune tolerant GAA-KO mice (Raben et al., Human Mol. Genet., 2001, 10:2039-2047) were treated with four weekly doses of rhGAA (20 mg/kg body weight), with or without concurrent β2 agonist treatment.
as §1, with “All animal procedures were done in accordance with Duke University Institutional Animal Care and Use Committee-approved guidelines.” left out

GAA-KO mice [3] = test: Rotarod testing, liver-targeted gene therapy plus clenbuterol
Experimental: FIG. 4A-4B depicts enhanced Rotarod performance and weight gain following liver-targeted gene therapy plus clenbuterol treatment. The GAA-KO mice (5 per group) were injected with AAV-LSPhGAA (2×10^10 vector particles/mouse). Vector treated mice were treated with clenbuterol or untreated. Non-vector treated GAA-KO mice were treated with clenbuterol or untreated to serve as controls. Mice were euthanized for tissue analysis 4 weeks after vector injection. […] Mean+/−standard deviation are shown. Statistically significant differences indicated (*=p<0.05; **=p<0.01).
For in vivo analysis of AAV vectors, stocks were administered intravenously (via the retroorbital sinus) in 3 month-old and 15 month-old GAA-KO mice, and to 3 month-old tolerant GAA-KO and DKO mice. Clenbuterol (30 μg/ml) was administered to groups of 3 month-old vector-injected and mock-injected male GAA-KO mice in drinking water for 28 days. At the indicated time points post-injection, tissue samples were obtained and processed as described below. All animal procedures were done in accordance with Duke University Institutional Animal Care and Use Committee-approved guidelines. GAA activity and glycogen content were analyzed essentially as described (Sun et al., Mol. Ther., 2005, 11:889-898; Sun et al., Mol. Ther., 2005, 11: 57-65). Rotarod testing was performed essentially as described (Sun, B. D. et al. 2005). […]

GAA-KO mice [4] = test: Weight gain, ERT plus clenbuterol; details: ERT plus clenbuterol v. ERT alone; male mice; p<0.05 at weeks 1-3
Experimental: GAA-KO mice were administered four weekly doses of rhGAA (20 mg/kg), and treated with clenbuterol (n=5) or ERT alone (n=5). […] Mean+/−standard deviation are shown. Statistically significant differences indicated (*=p<0.05; **=p<0.01).
The efficacy from gene therapy was increased by β2 agonist stimulation from clenbuterol treatment, and this benefit might be expected to affect ERT in Pompe disease, as well. Therefore, groups of 3 month-old GAA-KO mice were treated with four weekly doses of rhGAA (20 mg/kg), with or without concurrent clenbuterol treatment.

[5] = test system: immune tolerant GAA-KO mice; test: Wire hang testing, ERT plus β2 agonist; details: clenbuterol plus ERT v. ERT alone
Experimental: as §2, §3
as §1, with “All animal procedures were done in accordance with Duke University Institutional Animal Care and Use Committee-approved guidelines.” left out

## CC(C)(C)NCC(O)c1cc(Cl)c(N)c(Cl)c1 (stereo not shown) [clenbuterol]
[1]; cerebellum, 5 weeks after initiation of ERT, clenbuterol p=0.08, albuterol p=0.09
  GAA activity: trend toward increased GAA activity
[1]; β2 agonist plus ERT v. ERT alone
  GAA activity in tissues with reduced glycogen content: unchanged
[2]
  weight of the gastrocnemius: increased
GAA-KO mice [3]; clenbuterol alone v. mock treatment, p=0.02
  Rotarod latency increase: 26%
GAA-KO mice [3]; vector plus clenbuterol (30 μg/ml drinking water) v. vector alone, 4 weeks, p<2×10^−5
  Rotarod latency increase: 75%
GAA-KO mice [4]
  weight gain: increased weight gain
[5]
  Wire hang latency: increased significantly
